According to US9811635B2, “Immune and oxygen system measuring and drug screening method and apparatus” (priority 2010, dated 2017):

Assays:
human blood = test: Immunogram Analyzer run: effect of borate and aspirin on ROX/BOX of human blood; format: cell-based; settings: for effect on ROX and BOX: compared to saline runs on a patient's blood; for BOX / ROX / ROXNO / ROXO2: human blood aged 5 days at room temperature, 0.10 ml blood, 0.9 ml saline
Excerpt: (§1) First, a testing apparatus having a sample well 10 or cell with a sensor or probe 20 and a reader/processor 30 is provided. […] The testing probes are inserted into the cell and the testing apparatus is calibrated so that the reading for levels of signaling materials is at zero. For example, a compound A, such as signaling material-free saline solution can be added to cell E derive an instrument baseline reading free of signaling material. Alternatively, a gas that is free of signaling material can be bubbled into the cell.
Once a baseline showing a zero reading for signaling materials is established, an amount of blood D is added to cell E. This amount of blood D can be a small quantity, such as between about 0.02 mL and about 0.10 mL, of freshly drawn or frozen blood from a test individual or patient. For convenience, a 3.00 mL sample of anticoagulated blood may be frozen for later analysis. Very small samples of blood, such as less than about 0.02 mL, may also be analyzed.
(§2) An initial reading is made of the levels of signaling materials in the sample prior to any stress being imposed. The mixture of compound A and blood D is then exposed to an initial stress B. A suitable stress would be physical shear stress produced by the administering syringe and/or a rotating magnetic stirrer. The sensor within the cell E then determines a drop in concentration of signaling materials, which is presumably brought on by the addition of stress B. Generally, this drop in signaling materials concentration yields the value of BOX, which is correlated to the ability of the system to incorporate signaling materials for transport. Following this drop, any rise in concentration of signaling materials yields the value of ROX, which correlates to the capacity of the system to provide a reservoir of signaling materials.
The sensor of the testing apparatus preferably includes two or more sensors—one may be a membrane-based oxygen electrode 22, such as a polarographic Clark oxygen electrode, which measures O2, NO, H2S and other signaling materials that are unbound and can thus permeate through the membrane. In polarographic sensors, an anode, which is polarized, and a cathode are immersed in an electrolyte, into which oxygen and other signaling materials, permeates through the membrane. The anode/cathode pair causes current to flow in direct proportion to the amount of signaling material, such as oxygen, entering the system. The magnitude of the current thus directly correlates to the amount of signaling material entering the probe or sensor. It would be apparent that a membrane-based sensor necessarily depletes the sample of the material being tested as a result of consumption, yet the level of material consumed by the sensor is considered herein to be of an order of magnitude as to be insignificant for practical purposes.
The other sensor 24 or probe may be an optical fluorescence dissolved oxygen analyzer, such as an Ocean Optics ruthenium-coated fiber optical light emitting diode (LED) probe, and can also include other suitable light based devices, including a laser (hereinafter referred to collectively as an “optical sensor”), which determines an amount of value for O2 and the bundled O2 reservoir (ROXO2). Other sensors, such as chip-based sensors, may also be used on the basis of price, convenience, and sensitivity to new signaling and reactive substances.
As used herein, “ROXO2” is determinable O2 reservoir, and “ROXNO” is determinable NO reservoir. When bundled by the blood, and, in particular, the white blood cells, which are preparing signaling materials for use by the body, ROXO2 and ROXNO are unable to travel through the membrane sensor. However, after a BOX event occurs, increased levels of signaling materials in the sample, as determined by either the membrane or optical sensor, which tend to track each other, yield amounts of ROXO2 and ROXNO. […]

bovine blood standard = format: cell-based
Excerpt: as §1
as §2, with “Following this drop, any rise in concentration of signaling materials yields the value of ROX, which correlates to the capacity of the system to provide a reservoir of signaling materials.” left out
The other sensor 24 or probe may be an optical fluorescence dissolved oxygen analyzer, such as an Ocean Optics ruthenium-coated fiber optical light emitting diode (LED) probe, and can also include other suitable light based devices, including a laser (hereinafter referred to collectively as an “optical sensor”), which determines an amount of value for O2 and the bundled O2 reservoir (ROXO2). […]
Between these two or more sensors, therefore, the testing provides a reading for O2, NO, ROXO2, and NO that is in a bundled reservoir (ROXNO), as shown in FIGS. 6 and 7. […] Thus, the readings from the membrane probe and the optical probe together provide a total concentration of BOX and ROX (ROXO2+ROXNO) in the sample after exposure to physical stress B. Also, the slopes of the curves in FIGS. 6 and 7 yield valuable information with respect to the rates of reaction of these components. […]

Row | Compound | effect on ROX and BOX (human blood) | release of NO (human blood; final run of FIG. 6, human blood) | BOX (human blood) | ROX (human blood) | ROXNO (human blood) | ROXO2 (human blood) | rise of NO (human blood; in 2 seconds, human blood) | Increases ROXO2 by (bovine blood standard) | Lowers BOX by (bovine blood standard) | Lowers ROXNO by (bovine blood standard) | effect on ROX and BOX (human blood; listed as borate eye wash)
1 | CC(=O)Oc1ccccc1C(=O)O [Aspirin, aspirin] | affect ROX and BOX | very rapid releases of NO | 35% of air saturation | 74% of air saturation | 34% of air saturation | 29% of air saturation | a 37% rise | – | – | – | –
2 | acid-citrate-dextrose [ACD] | – | – | – | – | – | – | – | 10% | Lowers BOX by 8% | 25% | –
3 | borate | increases of BOX and ROX | – | 41% of air saturation | 79% of air saturation | 31% of air saturation | 27% of air saturation | – | – | – | – | affect ROX and BOX
